This passage reports IC50 results from US20240246967A1, “AXL COMPOUNDS” (ARCUS BIOSCIENCES, INC., priority 2021, published 2024).

One experiment has as its target T1, human TYRO3 (Homo sapiens, UniProt Q06418).
T1 construct: purchased Invitrogen
T1 sequence (Q06418 41-890): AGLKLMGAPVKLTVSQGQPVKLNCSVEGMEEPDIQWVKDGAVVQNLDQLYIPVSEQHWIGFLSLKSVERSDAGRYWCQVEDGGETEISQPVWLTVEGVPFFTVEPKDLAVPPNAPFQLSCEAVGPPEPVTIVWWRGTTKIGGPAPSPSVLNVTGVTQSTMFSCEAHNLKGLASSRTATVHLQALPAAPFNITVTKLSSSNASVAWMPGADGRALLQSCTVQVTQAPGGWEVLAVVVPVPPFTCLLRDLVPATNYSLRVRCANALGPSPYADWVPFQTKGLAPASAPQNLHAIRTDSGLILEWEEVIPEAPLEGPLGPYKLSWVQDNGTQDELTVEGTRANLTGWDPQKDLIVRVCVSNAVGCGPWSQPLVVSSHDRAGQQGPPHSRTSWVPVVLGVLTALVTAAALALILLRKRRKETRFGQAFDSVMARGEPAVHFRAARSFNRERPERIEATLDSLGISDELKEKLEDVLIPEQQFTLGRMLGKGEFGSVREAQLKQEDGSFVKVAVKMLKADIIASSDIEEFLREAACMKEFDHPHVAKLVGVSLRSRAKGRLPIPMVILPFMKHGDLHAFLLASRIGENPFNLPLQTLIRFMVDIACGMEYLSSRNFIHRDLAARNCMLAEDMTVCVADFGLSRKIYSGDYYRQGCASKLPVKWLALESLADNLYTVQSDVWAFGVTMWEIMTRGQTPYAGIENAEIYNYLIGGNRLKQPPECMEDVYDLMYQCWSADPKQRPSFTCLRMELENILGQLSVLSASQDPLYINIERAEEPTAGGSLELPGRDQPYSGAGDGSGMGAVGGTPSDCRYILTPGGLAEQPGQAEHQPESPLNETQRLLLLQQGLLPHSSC
The experiment in a line: HTRF KinEASE-TK biochemical potency assay, TYRO3. The settings on record: 1 nM TYRO3, 700 μM ATP, 800 nM TK Substrate-biotin. The gist of the method:
(§1)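 Enzyme (final 5 nM AXL; 1 nM TYRO3 or MER) plus compound, 1 h RT → add biotinylated TK substrate (800 nM final) and ATP (700 μM final) → 2 h RT → stop into HTRF detection mix → read 665/620 nm. Activity normalised to DMSO and pre-stopped blanks.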
In general terms: Time-resolved FRET reads energy transfer from a long-lived donor to a nearby acceptor.

The target in the next experiment is T2, human MER (Homo sapiens, UniProt Q12866).
T2 construct: purchased Invitrogen
T2 sequence (Q12866 21-999): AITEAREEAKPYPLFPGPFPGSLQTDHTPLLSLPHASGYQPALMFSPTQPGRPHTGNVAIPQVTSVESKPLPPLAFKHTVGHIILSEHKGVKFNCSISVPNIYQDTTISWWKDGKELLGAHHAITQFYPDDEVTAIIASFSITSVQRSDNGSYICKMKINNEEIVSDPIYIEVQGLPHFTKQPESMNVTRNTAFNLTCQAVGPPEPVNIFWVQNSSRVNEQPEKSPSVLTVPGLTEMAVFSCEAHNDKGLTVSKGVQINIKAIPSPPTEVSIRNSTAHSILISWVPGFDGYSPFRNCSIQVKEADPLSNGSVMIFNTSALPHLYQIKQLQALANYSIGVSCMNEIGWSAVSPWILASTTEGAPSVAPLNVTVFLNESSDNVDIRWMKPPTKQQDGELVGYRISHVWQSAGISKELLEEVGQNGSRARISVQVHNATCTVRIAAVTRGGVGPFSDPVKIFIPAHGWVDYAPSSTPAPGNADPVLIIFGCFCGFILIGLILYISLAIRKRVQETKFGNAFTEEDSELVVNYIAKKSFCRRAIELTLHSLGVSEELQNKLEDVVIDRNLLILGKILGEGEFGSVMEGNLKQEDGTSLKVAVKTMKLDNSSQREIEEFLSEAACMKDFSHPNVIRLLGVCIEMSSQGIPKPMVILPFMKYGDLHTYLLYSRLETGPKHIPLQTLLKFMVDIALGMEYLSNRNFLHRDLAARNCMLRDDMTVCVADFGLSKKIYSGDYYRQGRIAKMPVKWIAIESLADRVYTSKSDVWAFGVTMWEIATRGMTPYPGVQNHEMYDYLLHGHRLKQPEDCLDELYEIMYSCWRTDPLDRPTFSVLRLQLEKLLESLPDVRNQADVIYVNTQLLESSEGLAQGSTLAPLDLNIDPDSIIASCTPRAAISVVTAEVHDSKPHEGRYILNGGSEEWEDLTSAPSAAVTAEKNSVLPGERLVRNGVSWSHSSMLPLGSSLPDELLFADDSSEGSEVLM
Description: HTRF KinEASE-TK biochemical potency assay, MER. The settings on record: 1 nM MER, 700 μM ATP, 800 nM TK Substrate-biotin. In outline: as §1

What is called IC50 is the concentration at which inhibition is half-maximal. A high value points to weaker potency.

Take `C[C@@H]1CCCN1C1(C)CCc2ccc(-c3cnc4[nH]nc(-c5ccc(C(C)(C)O)c(Cl)c5)c4c3)cc2CC1` (stereo partly drawn) [Example 57, 2-[2-Chloro-4-(5-{7-methyl-7-[(2R)-2-methylpyrrolidin-1-yl]-6,7,8,9-tetrahydro-5H-benzo[7]annulen-2-yl}-1H-pyrazolo[3,4-b]pyridin-3-yl)phenyl]propan-2-ol]: the IC50 against human TYRO3 and at human MER was 100 to 1000 nM in each case.

For `C[C@H]1CCCN1C1(C)CCc2ccc(-c3cnc4[nH]nc(-c5ccc(C(C)(C)O)c(Cl)c5)c4c3)cc2CC1` (stereo partly drawn) [Example 58, 2-[2-Chloro-4-(5-{7-methyl-7-[(2S)-2-methylpyrrolidin-1-yl]-6,7,8,9-tetrahydro-5H-benzo[7]annulen-2-yl}-1H-pyrazolo[3,4-b]pyridin-3-yl)phenyl]propan-2-ol], the IC50 on human TYRO3 and against human MER was 100 to 1000 nM each time.

As to `CC(C)(O)c1ccc(-c2n[nH]c3ncc(-c4cc5c(cn4)CCC(N4CCCC4)CC5)cc23)cc1Cl` (centres unmarked) [Example 59, 2-(2-Chloro-4-{5-[7-(pyrrolidin-1-yl)-5H,6H,7H,8H,9H-cyclohepta[c]pyridin-3-yl]-1H-pyrazolo[3,4-b]pyridin-3-yl}phenyl)propan-2-ol], the IC50 against human TYRO3 was less than 100 nM; against human MER it was 100 to 1000 nM.

As for `CC(C)(O)c1ccc(-c2n[nH]c3ncc(-c4ccc5c(n4)CCC(N4CCCC4)CC5)cc23)cc1Cl` (centres unmarked) [Example 60, 2-(2-Chloro-4-{5-[7-(pyrrolidin-1-yl)-5H,6H,7H,8H,9H-cyclohepta[b]pyridin-2-yl]-1H-pyrazolo[3,4-b]pyridin-3-yl}phenyl)propan-2-ol], the IC50 against human TYRO3 and against human MER was 100 to 1000 nM each time.

With `CC(C)(O)c1ccc(-c2n[nH]c3ncc(-c4ccc5c(c4)CC4CCC(C5)C4N4CCCC4)cc23)cc1Cl` (centres unmarked) [Example 61, 2-(2-Chloro-4-{5-[13-(pyrrolidin-1-yl)tricyclo[8.2.1.0^3,8]trideca-3,5,7-trien-5-yl]-1H-pyrazolo[3,4-b]pyridin-3-yl}phenyl)propan-2-ol], the IC50 at human TYRO3 and against human MER was more than 1000 nM throughout.

As for `C[C@@H]1CCCN1C1CCc2ccc(-c3cnc4[nH]nc(-c5ccc(C6(O)CCC6)c(Cl)c5)c4c3)cc2CC1` (stereo partly drawn) [Example 62, 1-[2-Chloro-4-(5-{7-[(2R)-2-methylpyrrolidin-1-yl]-6,7,8,9-tetrahydro-5H-benzo[7]annulen-2-yl}-1H-pyrazolo[3,4-b]pyridin-3-yl)phenyl]cyclobutan-1-ol], the IC50 at human TYRO3 and on human MER was 100 to 1000 nM throughout.

Take `C[C@@H]1CCCN1C1CCc2ccc(-c3cnc4[nH]nc(-c5ccc(S(N)(=O)=O)c(Cl)c5)c4c3)cc2CC1` (stereo partly drawn) [Example 94, 2-Chloro-4-(5-(7-((R)-2-methylpyrrolidin-1-yl)-6,7,8,9-tetrahydro-5H-benzo[7]annulen-2-yl)-1H-pyrazolo[3,4-b]pyridin-3-yl)benzenesulfonamide]: the values for the IC50 against human TYRO3 and at human MER were less than 100 nM and 100 to 1000 nM, respectively.

As to `C[C@@H]1CCCN1C1(C)CCc2ccc(-c3cnc4[nH]nc(-c5ccc(S(N)(=O)=O)cc5)c4c3)cc2CC1` (stereo partly drawn) [Example 95, 4-(5-(7-Methyl-7-((R)-2-methylpyrrolidin-1-yl)-6,7,8,9-tetrahydro-5H-benzo[7]annulen-2-yl)-1H-pyrazolo[3,4-b]pyridin-3-yl)benzenesulfonamide], the IC50 against human TYRO3 was less than 100 nM; against human MER, 100 to 1000 nM.

In the case of `CC(C)(O)c1ccc(-c2n[nH]c3ncc(-c4ccc5c(c4)CCC4(CCCN4)CC5)cc23)cc1Cl` (centres unmarked) [Example 96, 2-[2-Chloro-4-(5-{5,6,8,9-tetrahydrospiro[benzo[7]annulene-7,2′-pyrrolidin]-3-yl}-1H-pyrazolo[3,4-b]pyridin-3-yl)phenyl]propan-2-ol], the figures for the IC50 against human TYRO3 and against human MER were 100 to 1000 nM and more than 1000 nM, respectively.

With `C[C@@H]1CCCN1C1CCc2ccc(-c3cnc4[nH]nc(-c5ccc(C(C)(C)O)cn5)c4c3)cc2CC1` (stereo partly drawn) [Example 97, 2-[6-(5-{7-[(2R)-2-Methylpyrrolidin-1-yl]-6,7,8,9-tetrahydro-5H-benzo[7]annulen-2-yl}-1H-pyrazolo[3,4-b]pyridin-3-yl)pyridin-3-yl]propan-2-ol], the IC50 was 100 to 1000 nM on human TYRO3 and more than 1000 nM at human MER.

With `C[C@@H]1CCCN1C1(C)CCc2ccc(-c3cnc4[nH]nc(-c5cnc(C(C)(C)O)c(Cl)c5)c4c3)cc2CC1` (stereo partly drawn) [Example 98, 2-[3-Chloro-5-(5-{7-methyl-7-[(2R)-2-methylpyrrolidin-1-yl]-6,7,8,9-tetrahydro-5H-benzo[7]annulen-2-yl}-1H-pyrazolo[3,4-b]pyridin-3-yl)pyridin-2-yl]propan-2-ol], the IC50 on human TYRO3 and at human MER was 100 to 1000 nM in each case.

Regarding `C[C@@H]1CCCN1C1(C)CCc2ccc(-c3cnc4[nH]nc(-c5ccc(C(=O)N[C@@H]6CCOC6)cc5)c4c3)cc2CC1` (stereo partly drawn) [Example 99, 4-(5-{7-Methyl-7-[(2R)-2-methylpyrrolidin-1-yl]-6,7,8,9-tetrahydro-5H-benzo[7]annulen-2-yl}-1H-pyrazolo[3,4-b]pyridin-3-yl)-N-[(3R)-oxolan-3-yl]benzamide], the IC50 on human TYRO3 and on human MER was more than 1000 nM in each case.

As for `CCS(=N)(=O)c1ccc(-c2n[nH]c3ncc(-c4ccc5c(c4)CCC(C)(N4CCC[C@H]4C)CC5)cc23)cc1` (stereo partly drawn) [Example 100, Ethyl(imino)[4-(5-{7-methyl-7-[(2R)-2-methylpyrrolidin-1-yl]-6,7,8,9-tetrahydro-5H-benzo[7]annulen-2-yl}-1H-pyrazolo[3,4-b]pyridin-3-yl)phenyl]-λ^6-sulfanone], the IC50 on human TYRO3 and on human MER was 100 to 1000 nM each time.

Take `C[C@@H]1CCCN1[C@@H]1CCc2cc(-c3cnc4[nH]nc(-c5ccc(S(=O)(=O)C6CC6)cc5)c4c3)cnc2CC1` [Example 101, (2R)-1-(3-{3-[4-(Cyclopropanesulfonyl)phenyl]-1H-pyrazolo[3,4-b]pyridin-5-yl}-5H,6H,7H,8H,9H-cyclohepta[b]pyridin-7-yl)-2-methylpyrrolidine]: the IC50 at human TYRO3 is 100 to 1000 nM; on human MER it was more than 1000 nM.

Take `C[C@@H]1CCCN1[C@H]1CCc2cc(-c3cnc4[nH]nc(-c5ccc(S(=O)(=O)C6CC6)cc5)c4c3)cnc2CC1` [Example 102, (2R)-1-[(7S)-3-{3-[4-(Cyclopropanesulfonyl)phenyl]-1H-pyrazolo[3,4-b]pyridin-5-yl}-5H,6H,7H,8H,9H-cyclohepta[b]pyridin-7-yl]-2-methylpyrrolidine]: the concentration for half-maximal inhibition (IC50) on human TYRO3 and against human MER was more than 1000 nM in each case.

For the molecule `COC1CCN(S(=O)(=O)c2ccc(-c3n[nH]c4ncc(-c5ccc6c(c5)CCC(C)(N5CCC[C@H]5C)CC6)cc34)cc2)CC1` (stereo partly drawn) [Example 103, 3-(4-((4-Methoxypiperidin-1-yl)sulfonyl)phenyl)-5-(7-methyl-7-((R)-2-methylpyrrolidin-1-yl)-6,7,8,9-tetrahydro-5H-benzo[7]annulen-2-yl)-1H-pyrazolo[3,4-b]pyridine], the IC50 against human TYRO3 is 100 to 1000 nM; against human MER, more than 1000 nM.
